Starred links: 1 amine or outer side, 2 acyl side, 3 side chain; linkers in the order of their positions; H or OH if unused. Non-standard residues stand in square brackets, D forms with d. Residues, ends and D or L forms follow the SMILES beside them. X1 = CNS(=O)(=O)c1ccccc1N([C@H](C(=O)[*:2])C(C)C)[*:1]
Test system: Pfu aminopeptidase I
Details: 100 μM 5, 40 μM 5a, 0.08 μg mL−1 aminopeptidase I, 20 μM Co(OAc)2, NaOAc buffer 5 mM, pH 6.0, 95 °C, quenched with EDTA, RP-HPLC at 220 and 310 nm, internal standard 19, starting material peak area compared with 0 h
Experimental: (b) RP-HPLC analysis of the enzymatic degradation of angiotensin IV (5) and arylated angiotensin IV (5a) with aminopeptidase I. Conditions: 100 μM 5, 40 μM 5a, 0.08 μg mL^−1 aminopeptidase I, and 20 μM Co(OAc)2 in NaOAc buffer (5 mM, pH = 6.0) at 95 °C. Internal standard 19 for quantification. (c) Peptidase activity: time course for aminopeptidease I cleavage of arylated angiotensin IV (5a, orange) and angiotensin IV (5, blue).
We decided to investigate whether the charge and structural perturbation afforded by the N-arylation engendered peptide stability towards enzymatic degradation.
Enzymatic Degradation with Aminopeptidase I
Stability Test of Peptides to Aminopeptidase I
1.7 mM in 20% aq. MeCN) and Co(OAc)2 (50 µL, 200 µM in H2O) in NaOAc buffer (338 µL, 5 mM,
pH = 6.0) was added aminopeptidase I (75 µL, 0.5 mg/mL in Tris buffer (50 mM, pH = 6.0). A 50 -
µL aliquot was immediately removed after addition of the enzyme and was quenched with EDTA
(5 µL, 1 M in H2O). Internal standard 2-amino-N,N’-dimethylbenzenesulfonamide 19 was added
(1.5 μL, 4 mM in DMSO) and the 0 h timepoint was analyzed by RP-HPLC (20-60% MeCN over
28 min) at 220 nm and 310 nm. The reaction mixture was then heated to 95 °C and 50-µL aliquots
were removed and quenched with EDTA (5 µL, 1 M in H2O) at 10 min, 30 min, 1 h, and 2 h. After
quenching, the internal standard 19 was added (1.5 μL, 4 mM in DMSO) and analyzed by RP- […]

Structure (SMILES)	Stability towards enzymatic degradation by aminopeptidase I, after 10 minutes (10 min)	Stability towards enzymatic degradation by aminopeptidase I, after 2 h incubation (2 h)
CC[C@H](C)[C@H](NC(=O)[C@H](Cc1ccc(O)cc1)NC(=O)[C@@H](N)C(C)C)C(=O)N[C@@H](Cc1cnc[nH]1)C(=O)N1CCC[C@H]1C(=O)N[C@@H](Cc1ccccc1)C(=O)O [compound 5, Angiotensin IV]	completely consumed	
CC[C@H](C)[C@H](NC(=O)[C@H](Cc1ccc(O)cc1)NC(=O)[C@@H](Nc1ccccc1S(=O)(=O)NC)C(C)C)C(=O)N[C@@H](Cc1c[nH]cn1)C(=O)N1CCC[C@H]1C(=O)N[C@@H](Cc1ccccc1)C(=O)O [5a] (H-[X1]YIHPF-OH)		remained stable

From publication PMC8162437, “Copper-mediated peptide arylation selective for the N-terminus” (Chemical Science, 2020)
